Measured values from the NIST ThermoML archive (doi:10.1016/j.jct.2016.07.005).

Assay: xn = mol fraction of the nth substance listed
Conditions: 100 kPa, Liquid; for viscosity: Concentric cylinders viscometry; for mass density: Vibrating tube method

CN1CCC[C@H]1c1cccnc1 [(-)-3-(N-methylpyrrolidino)pyridine] + CCC(C)O
Conditions	mass density [kg/m3]	viscosity [mPa·s]
293.15 K, x1 = 0.1	841.874	3.496
293.15 K, x1 = 0.2036	873.003	3.46
293.15 K, x1 = 0.3	898.284	3.593
293.15 K, x1 = 0.4	921.306	3.845
293.15 K, x1 = 0.5	941.501	4.157
293.15 K, x1 = 0.6	959.218	4.476
293.15 K, x1 = 0.6956	974.099	4.734
293.15 K, x1 = 0.8	988.293	4.907
293.15 K, x1 = 0.9	1000.07	4.909
293.15 K, x1 = 1	1010.23	4.694
298.15 K, x1 = 0.1	837.728	2.96
298.15 K, x1 = 0.2036	868.857	2.981
298.15 K, x1 = 0.3	894.137	3.11
298.15 K, x1 = 0.4	917.159	3.319
298.15 K, x1 = 0.5	937.354	3.566
298.15 K, x1 = 0.6	955.075	3.813
298.15 K, x1 = 0.6956	969.963	4.015
298.15 K, x1 = 0.8	984.171	4.158
298.15 K, x1 = 0.9	995.971	4.179
298.15 K, x1 = 1	1006.16	4.048
303.15 K, x1 = 0.1	833.532	2.521
303.15 K, x1 = 0.2036	864.676	2.579
303.15 K, x1 = 0.3	889.965	2.704
303.15 K, x1 = 0.4	912.993	2.881
303.15 K, x1 = 0.5	933.194	3.08
303.15 K, x1 = 0.6	950.921	3.277
303.15 K, x1 = 0.6956	965.82	3.439
303.15 K, x1 = 0.8	980.047	3.558
303.15 K, x1 = 0.9	991.873	3.591
303.15 K, x1 = 1	1002.1	3.518
308.15 K, x1 = 0.1	829.273	2.162
308.15 K, x1 = 0.2036	860.452	2.244
308.15 K, x1 = 0.3	885.762	2.367
308.15 K, x1 = 0.4	908.808	2.523
308.15 K, x1 = 0.5	929.021	2.691
308.15 K, x1 = 0.6	946.761	2.853
308.15 K, x1 = 0.6956	961.675	2.987
308.15 K, x1 = 0.8	975.925	3.09
308.15 K, x1 = 0.9	987.783	3.128
308.15 K, x1 = 1	998.055	3.088
313.15 K, x1 = 0.1	824.949	1.875
313.15 K, x1 = 0.2036	856.182	1.975
313.15 K, x1 = 0.3	881.53	2.094
313.15 K, x1 = 0.4	904.598	2.232
313.15 K, x1 = 0.5	924.831	2.373
313.15 K, x1 = 0.6	942.588	2.508
313.15 K, x1 = 0.6956	957.521	2.62
313.15 K, x1 = 0.8	971.798	2.713
313.15 K, x1 = 0.9	983.692	2.761
313.15 K, x1 = 1	994.014	2.758
318.15 K, x1 = 0.1	820.559	1.627
318.15 K, x1 = 0.2036	851.865	1.734
318.15 K, x1 = 0.3	877.259	1.848
318.15 K, x1 = 0.4	900.359	1.974
318.15 K, x1 = 0.5	920.616	2.099
318.15 K, x1 = 0.6	938.394	2.214
318.15 K, x1 = 0.6956	953.35	2.308
318.15 K, x1 = 0.8	967.662	2.383
318.15 K, x1 = 0.9	979.601	2.419
318.15 K, x1 = 1	989.984	2.411
323.15 K, x1 = 0.1	816.09	1.434
323.15 K, x1 = 0.2036	847.491	1.55
323.15 K, x1 = 0.3	872.943	1.662
323.15 K, x1 = 0.4	896.089	1.778
323.15 K, x1 = 0.5	916.374	1.888
323.15 K, x1 = 0.6	934.178	1.989
323.15 K, x1 = 0.6956	949.16	2.071
323.15 K, x1 = 0.8	963.511	2.141
323.15 K, x1 = 0.9	975.504	2.183
323.15 K, x1 = 1	985.962	2.195

CN1CCC[C@H]1c1cccnc1 [(-)-3-(N-methylpyrrolidino)pyridine] + CCCCO
Conditions	mass density [kg/m3]	viscosity [mPa·s]
293.15 K, x1 = 0.1	845.043	3.049
293.15 K, x1 = 0.196	874.098	3.209
293.15 K, x1 = 0.3	901.216	3.408
293.15 K, x1 = 0.3931	922.268	3.601
293.15 K, x1 = 0.5	943.285	3.829
293.15 K, x1 = 0.593	960.358	4.027
293.15 K, x1 = 0.7	975.308	4.242
293.15 K, x1 = 0.7931	987.593	4.412
293.15 K, x1 = 0.9	1000.01	4.578
293.15 K, x1 = 1	1010.23	4.694
298.15 K, x1 = 0.1	841.123	2.692
298.15 K, x1 = 0.196	870.112	2.833
298.15 K, x1 = 0.3	897.182	2.999
298.15 K, x1 = 0.3931	918.206	3.155
298.15 K, x1 = 0.5	939.205	3.337
298.15 K, x1 = 0.593	956.271	3.494
298.15 K, x1 = 0.7	971.222	3.666
298.15 K, x1 = 0.7931	983.509	3.803
298.15 K, x1 = 0.9	995.934	3.942
298.15 K, x1 = 1	1006.16	4.048
303.15 K, x1 = 0.1	837.185	2.374
303.15 K, x1 = 0.196	866.114	2.498
303.15 K, x1 = 0.3	893.14	2.642
303.15 K, x1 = 0.3931	914.139	2.776
303.15 K, x1 = 0.5	935.124	2.931
303.15 K, x1 = 0.593	952.186	3.062
303.15 K, x1 = 0.7	967.138	3.205
303.15 K, x1 = 0.7931	979.432	3.319
303.15 K, x1 = 0.9	991.866	3.433
303.15 K, x1 = 1	1002.1	3.518
308.15 K, x1 = 0.1	833.229	2.105
308.15 K, x1 = 0.196	862.102	2.219
308.15 K, x1 = 0.3	889.089	2.346
308.15 K, x1 = 0.3931	910.068	2.461
308.15 K, x1 = 0.5	931.041	2.592
308.15 K, x1 = 0.593	948.102	2.702
308.15 K, x1 = 0.7	963.059	2.821
308.15 K, x1 = 0.7931	975.36	2.917
308.15 K, x1 = 0.9	987.806	3.013
308.15 K, x1 = 1	998.055	3.088
313.15 K, x1 = 0.1	829.249	1.885
313.15 K, x1 = 0.196	858.073	1.99
313.15 K, x1 = 0.3	885.026	2.103
313.15 K, x1 = 0.3931	905.989	2.203
313.15 K, x1 = 0.5	926.955	2.316
313.15 K, x1 = 0.593	944.017	2.41
313.15 K, x1 = 0.7	958.981	2.514
313.15 K, x1 = 0.7931	971.292	2.598
313.15 K, x1 = 0.9	983.751	2.686
313.15 K, x1 = 1	994.014	2.758
318.15 K, x1 = 0.1	825.24	1.683
318.15 K, x1 = 0.196	854.022	1.777
318.15 K, x1 = 0.3	880.948	1.88
318.15 K, x1 = 0.3931	901.899	1.97
318.15 K, x1 = 0.5	922.862	2.07
318.15 K, x1 = 0.593	939.982	2.152
318.15 K, x1 = 0.7	954.903	2.239
318.15 K, x1 = 0.7931	967.226	2.304
318.15 K, x1 = 0.9	979.704	2.367
318.15 K, x1 = 1	989.984	2.411
323.15 K, x1 = 0.1	821.198	1.495
323.15 K, x1 = 0.196	849.946	1.603
323.15 K, x1 = 0.3	876.851	1.708
323.15 K, x1 = 0.3931	897.795	1.793
323.15 K, x1 = 0.5	918.759	1.882
323.15 K, x1 = 0.593	935.834	1.952
323.15 K, x1 = 0.7	950.822	2.025
323.15 K, x1 = 0.7931	963.162	2.083
323.15 K, x1 = 0.9	975.66	2.143
323.15 K, x1 = 1	985.962	2.195
